One data set concerns MCF7. Put plainly: Cytotoxicity IC50 on MCF7 cells. It is filed as cell-based. The note with it: Homo sapiens. As for the experimental part:
(§1) The preceding KB cells are then incubated in 6- or 96-well plates in the presence of the test compounds of the invention, dissolved in dimethyl sulfoxide (DMSO). The content of surviving cells is measured by the “colony-forming assay” test, in which the cells are redistributed at a density of 100 to 300 cells per well in 24-well plates, for a period of 8 days, and are then stained with Leishman's reagent (0.2% in methanol). The colonies of more than 50 cells are counted visually under a microscope, the survival rate being expressed on the colonies formed in the presence of the compounds of the invention relative to cell colonies not treated with said compounds. The determination of the IC50 values (concentration of compounds in the reaction medium for which 50% of the tested tumor cells survived the treatment) enables comparison of the efficacy of these compounds.
(§2) Table 4 presents the results of the IC50 (cytotoxicity) on different cell lines, according to the protocol described previously, obtained for compounds I14 and I20.

The next data set concerns caspases 3/7. Put plainly: Activation of caspases 3/7 in HL60 cells. The data set is classed as cell-based, human. Particulars: 48 hours. As for the experimental part:
(§3) In this example, in order to show the role of compounds I14 and I20 in this effect, specific products were used: DEVD for caspases 3/7, IEDT for caspases 8, and LEHD for caspases 9. Moreover, colchicine was used as reference compound that induces this activity of caspases. I14 and I20 were tested at three concentrations: 1 μM, 0.1 μM and 0.01 μM.
(§4) The experiments were performed by placing I14 and I20 in contact with HL60 cells for 48 hours, according to the standard protocol described by Margolin et al., J. Biol. Chem. (1997), 272, p. 7223, using standard commercially available diagnostic kits (Calbiochem, USA).

A further data set concerns OV3. Put plainly: Cytotoxicity IC50 on OV3 cells. It is filed as cell-based. The note with it: Homo sapiens. As for the experimental part: as §1, §2
Data set [1] concerns U87/GFP cells. Put plainly: Antiproliferative effect on U87/GFP cells (flash cytometry). The data set is classed as cell-based, human. As for the experimental part:
For the U-87/GFP cells, the control of cell proliferation and migration in the presence of the compounds (I) of the invention is performed via a colorimetric method (MTS) and is performed according to known standard protocols. The methodologies implemented use flash cytometry (Trophos S.A., Marseilles, France). The flash cytometry technique involves fluorescence, which consists of irradiating a compound at a set wavelength and of recording the fluorescence emitted at another wavelength. This technique is performed with a flash cytometer and adapted for 96-well test plates. The excitation and emission wavelengths in the context of use of this fluorescence are located in the 485-495 nm range. The measured fluorescence expresses the amount of cells surviving after treatment with the compounds of the invention. The publications by Luby-Phelps K. et al., J. Histochemistry and Cytometry, 2003, 51, 271-274 and Modarai B. et al., Circulation, 2005, 111, 2645-2653 may be mentioned by way of reference for the above methods.
The cells of the U87/GFP lines are cultured in 96-well plates according to a standard methodology described by Bajetto et al., Neurochemistry International, 2006, 43, 31-38 in the presence of different concentrations of the compounds of the invention.
The cell proliferation is determined and quantified according to standard methods known to those skilled in the art. A 100% proliferation is attributed to the untreated cells and a percentage less than 100% is obtained when the same cells are treated with the compounds of the invention.
(§5) The cell proliferation and migration are determined by imaging using a flash cytometer (Trophos S.A., Marseilles, France), and the calculations are performed using the “Metamorph 4.6” imaging signal processing software (Molecular Devices, USA), the use of which, which is known in the field, makes it possible to determine the above two effects independently of each other.

A further data set concerns MCF7R. Put plainly: Cytotoxicity IC50 on MCF7R cells. The note with it: Homo sapiens. The data set is classed as cell-based. As for the experimental part:
as §1, §2

A further data set deals with KB cells. Put plainly: Cytotoxicity / cell viability on KB cells (colony-forming assay). The data set is classed as cell-based, human. Particulars: for IC50: Homo sapiens, KB, read-out: Cytotoxicity on KB cells (IC50). As for the experimental part:
Cancerous KB cells are also considered, to determine the cell viability (or survival rate). This cell viability is determined according to the teaching of Nicholson K. M. et al., British Journal of Cancer, 1999, 81, 423-430.
KB cells are human carcinoma cell lines, KB-3-1. These cells are maintained in a culture medium, “Dulbecco's modified Eagle's medium” (DMEM—Sigma), which contains 0.11 g/l of sodium pyruvate and 4.5 g/l of glucose, supplemented with 10% (v/v) fetal calf serum, penicillin (32 μg/ml) and streptomycin (50 μg/ml). The cells are cultured as monolayers and are incubated at 37° C. in a humid atmosphere (95% air/5% CO2).
as §1

The next data set concerns caspases 8. Put plainly: Activation of caspases 8 in HL60 cells. It is filed as cell-based, human. Particulars: 48 hours, 1 μM, 0.1 μM and 0.01 μM. As for the experimental part:
as §3, §4

Another data set has as its system HTC15. Put plainly: Cytotoxicity IC50 on HTC15 cells. It is filed as cell-based. The note with it: Homo sapiens. As for the experimental part: as §1, §2
The next data set has as its system SF268. Put plainly: Cytotoxicity IC50 on SF268 cells. It is filed as cell-based. Particulars: Homo sapiens, SF-268. As for the experimental part: as §1, §2
The test system of a further data set is K562. Put plainly: Cytotoxicity IC50 on K562 cells. The data set is classed as cell-based. The note with it: Homo sapiens. As for the experimental part: as §1, §2
The subject of data set [2] is U87/GFP cells. Put plainly: Antimigratory effect on U87/GFP cells (scratch technique). It is filed as cell-based, human. As for the experimental part:
The determination of the antimigratory activity of the compounds (I) of the invention on these same cell lines, cultured in MEM medium (Minimum Essential Medium) is performed via the “scratch” technique that consists in scratching a cell lawn using a micropipette cone. By comparison with these same cells not containing the compounds of the invention, the antimigratory effect is determined. A 100% migration is attributed to the untreated cells, whereas, as a function of the concentration of the compounds (I) of the invention, total stoppage of migration is determined by observation of the “scratch” remaining unfilled by the cell migration, by means of computer software.
as §5

The next data set relates to caspases 9. Put plainly: Activation of caspases 9 in HL60 cells. The data set is classed as cell-based, human. Particulars: 48 hours, 1 μM, 0.1 μM and 0.01 μM. As for the experimental part:
as §3, §4

The next data set has as its system HTC116. Put plainly: Cytotoxicity IC50 on HTC116 cells. It is filed as cell-based. Particulars: Homo sapiens. As for the experimental part: as §1, §2
Another data set relates to A549. Put plainly: Cytotoxicity IC50 on A549 cells. The data set is classed as cell-based. Particulars: Homo sapiens. As for the experimental part:
as §1, §2

The next data set relates to HL60. Put plainly: Cytotoxicity IC50 on HL60 cells. It is filed as cell-based. Particulars: Homo sapiens, HL-60. As for the experimental part:
as §1, §2

In the next data set the test system is PC3. Put plainly: Cytotoxicity IC50 on PC3 cells. It is filed as cell-based. Particulars: Homo sapiens, PC-3. As for the experimental part: as §1, §2
A further data set relates to HepG2. Put plainly: Cytotoxicity IC50 on HepG2 cells. The data set is classed as cell-based. Particulars: Homo sapiens. As for the experimental part:
as §1, §2

SMILES strings stand for the structures. Where two headings read alike, the source gives them in different places.

For the molecule `Cc1ccc(CN(Cc2ccc(O)c3ncccc23)c2ccc(O)c3ncccc23)cc1` [I14, 5-(((8-hydroxyquinolin-5-yl)(4-methylbenzyl)amino)methyl)quinolin-8-ol], the IC50 in the data set on MCF7 worked out at 0.0054 ± 0.0009 µM; in the data set with OV3 it was 0.008 ± 0.0004 µM; in the data set with U87/GFP cells [1] (concentration giving 65% inhibition of proliferation) it was 0.5 µM; with MCF7R it was 0.0373 ± 0.028 µM; with KB cells (first value of two experiments performed in parallel), 0.0026 µM; in the data set on KB cells (second value of two experiments performed in parallel), 0.0014 µM. The IC50 in the data set with HTC15 was 0.006 ± 0.0073 µM; with SF268, 0.178 ± 0.083 µM; in the data set with K562 it was 0.0408 ± 0.022 µM; in the data set on U87/GFP cells [2] (concentration giving 40% inhibition of migration), 0.5 µM; with HTC116, 0.0032 ± 0.0012 µM; with A549, 0.0043 ± 0.0001 µM. In addition, the half-maximal inhibitory concentration (IC50) with HL60 came out at 0.0327 ± 0.0066 µM; in the data set on PC3, 0.343 ± 0.125 µM; in the data set on HepG2, 0.0521 ± 0.0145 µM. For the same molecule, the “effect on the activation of caspases 3/7” value in the data set on caspases 3/7 (0.01 μM) was “neither 114 nor 120 has an effect”; with caspases 3/7 (1 μM and 0.1 μM) it was “strong effect”. The inhibition at 0.5 µM worked out at 65% in the data set with U87/GFP cells [1] (Homo sapiens, at 0.5 μM, read-out: Antiproliferative effect on U87/GFP cells: percentage inhibition) and 40% in the data set on U87/GFP cells [2] (Homo sapiens, at 0.5 μM, read-out: Antimigratory effect on U87/GFP cells: percentage inhibition). Further, the “Cytotoxicity on KB cells (percentage inhibition of cell viability)” value in the data set on KB cells (at 1 μM, relative to reference without compound) stood at 90% at 1 μM. The “effect on the activation of caspases 8” value with caspases 8 is recorded as “no effect”. Moreover, in the data set with caspases 9, the “effect on the activation of caspases 9” value is “no effect”.

By IC50 is commonly meant the concentration that gives 50% inhibition.

The record behind these values is US8614230B2, “Derivatives of the aminated hydroxyquinoline class for treating cancers” (Biopharmed, priority 2007, dated 2013).
